Reference: patent publication US20210214758A1, “METHODS AND TOOLS FOR DETERMINING CLONAL RELATEDNESS AND PREDICTING CLONAL TRAITS” (priority 2018, published 2021)

System: Klebsiella isolates
Test: Antibiotic susceptibility of Klebsiella clinical isolates per 7-SNP clonotype (Lookup Table 1; disk diffusion)
Format: cell-based, Klebsiella spp.
Conditions: CT 000
Procedure: In further embodiments, the Lookup Table is Lookup Table 1. The information contained in Lookup Table 1 below was obtained from urine specimens from patients with Klebsiella infections from several clinics within different regions of the United States. CT=clonotypes determined using a 7-SNP combination: phoE54; rpoB130; infB279; mdh315; phoE336; phoE354; and mdh429.
Next, antibiotic resistance was determined for all 387 Klebsiella isolates in the discovery set. Antibiotic testing was carried out according to the standard disk diffusion method as described in the Clinical and Laboratory Standards Institute (M100 Performance Standards for Antimicrobial Susceptibility Testing, 27th Edition, 2017). […] Since almost all Klebsiella isolates are known to be resistant to AMP and sensitive to IMI, TET is not used for treatment of urinary tract infections, and ESBL production is partially reflected in resistance to CTR, these antibiotics were not included for further analysis.
To aid in clinical decision-making and to translate clonotype information to treatment selection, Lookup Table 1 was generated. […] The information contained in Lookup Table 1 was obtained from urine specimens from patients with Klebsiella infections from several clinics within different regions of the United States. Indications of allowance or non-recommendation were determined based on a 20% resistance threshold to the indicated antibiotic; i.e., the antibiotic is recommended when more than 80% of the tested isolates within the indicated clonotype were susceptible to the indicated antibiotic, and was cautioned against when less than 80% of the isolates were susceptible to the antibiotic.

Structure (SMILES) | susceptibility, %
C[C@@H]1O[C@@H]1P(=O)(O)O [FOS, fosfomycin] | 63%

Same assay, conditions: CT 001

Structure (SMILES) | susceptibility, %
C[C@@H]1O[C@@H]1P(=O)(O)O [FOS, fosfomycin] | 0%

Same assay, conditions: CT 010

Structure (SMILES) | susceptibility, %
C[C@@H]1O[C@@H]1P(=O)(O)O [FOS, fosfomycin] | 33%

Same assay, conditions: CT 011

Structure (SMILES) | susceptibility, %
C[C@@H]1O[C@@H]1P(=O)(O)O [FOS, fosfomycin] | 9%

Same assay, conditions: CT 031

Structure (SMILES) | susceptibility, %
C[C@@H]1O[C@@H]1P(=O)(O)O [FOS, fosfomycin] | 33%

Same assay, conditions: CT 040

Structure (SMILES) | susceptibility, %
C[C@@H]1O[C@@H]1P(=O)(O)O [FOS, fosfomycin] | 25%

Same assay, conditions: CT 050

Structure (SMILES) | susceptibility, %
C[C@@H]1O[C@@H]1P(=O)(O)O [FOS, fosfomycin] | 29%

Same assay, conditions: CT 051

Structure (SMILES) | susceptibility, %
C[C@@H]1O[C@@H]1P(=O)(O)O [FOS, fosfomycin] | 41%

Same assay, conditions: CT 071

Structure (SMILES) | susceptibility, %
C[C@@H]1O[C@@H]1P(=O)(O)O [FOS, fosfomycin] | 80%

Same assay, conditions: CT 100

Structure (SMILES) | susceptibility, %
C[C@@H]1O[C@@H]1P(=O)(O)O [FOS, fosfomycin] | 71%

Same assay, conditions: CT 110

Structure (SMILES) | susceptibility, %
C[C@@H]1O[C@@H]1P(=O)(O)O [FOS, fosfomycin] | 0%

Same assay, conditions: CT 111

Structure (SMILES) | susceptibility, %
C[C@@H]1O[C@@H]1P(=O)(O)O [FOS, fosfomycin] | 30%

Same assay, conditions: CT 130

Structure (SMILES) | susceptibility, %
C[C@@H]1O[C@@H]1P(=O)(O)O [FOS, fosfomycin] | 29%

Same assay, conditions: CT 131

Structure (SMILES) | susceptibility, %
C[C@@H]1O[C@@H]1P(=O)(O)O [FOS, fosfomycin] | 36%

Same assay, conditions: CT 141

Structure (SMILES) | susceptibility, %
C[C@@H]1O[C@@H]1P(=O)(O)O [FOS, fosfomycin] | 0%

Same assay, conditions: CT 150

Structure (SMILES) | susceptibility, %
C[C@@H]1O[C@@H]1P(=O)(O)O [FOS, fosfomycin] | 42%

Same assay, conditions: CT 151

Structure (SMILES) | susceptibility, %
C[C@@H]1O[C@@H]1P(=O)(O)O [FOS, fosfomycin] | 43%

Same assay, conditions: CT 160

Structure (SMILES) | susceptibility, %
C[C@@H]1O[C@@H]1P(=O)(O)O [FOS, fosfomycin] | 0%

Same assay, conditions: CT 170

Structure (SMILES) | susceptibility, %
C[C@@H]1O[C@@H]1P(=O)(O)O [FOS, fosfomycin] | 39%

Same assay, conditions: CT 171

Structure (SMILES) | susceptibility, %
C[C@@H]1O[C@@H]1P(=O)(O)O [FOS, fosfomycin] | 22%

Same assay, conditions: CT 200

Structure (SMILES) | susceptibility, %
C[C@@H]1O[C@@H]1P(=O)(O)O [FOS, fosfomycin] | 43%

Same assay, conditions: CT 201

Structure (SMILES) | susceptibility, %
C[C@@H]1O[C@@H]1P(=O)(O)O [FOS, fosfomycin] | 26%

Same assay, conditions: CT 210

Structure (SMILES) | susceptibility, %
C[C@@H]1O[C@@H]1P(=O)(O)O [FOS, fosfomycin] | 45%

Same assay, conditions: CT 211

Structure (SMILES) | susceptibility, %
C[C@@H]1O[C@@H]1P(=O)(O)O [FOS, fosfomycin] | 43%

Same assay, conditions: CT 230

Structure (SMILES) | susceptibility, %
C[C@@H]1O[C@@H]1P(=O)(O)O [FOS, fosfomycin] | 100%

Same assay, conditions: CT 231

Structure (SMILES) | susceptibility, %
C[C@@H]1O[C@@H]1P(=O)(O)O [FOS, fosfomycin] | 100%

Same assay, conditions: CT 240

Structure (SMILES) | susceptibility, %
C[C@@H]1O[C@@H]1P(=O)(O)O [FOS, fosfomycin] | 100%

Same assay, conditions: CT 241

Structure (SMILES) | susceptibility, %
C[C@@H]1O[C@@H]1P(=O)(O)O [FOS, fosfomycin] | 0%

Same assay, conditions: CT 250

Structure (SMILES) | susceptibility, %
C[C@@H]1O[C@@H]1P(=O)(O)O [FOS, fosfomycin] | 55%

Same assay, conditions: CT 251

Structure (SMILES) | susceptibility, %
C[C@@H]1O[C@@H]1P(=O)(O)O [FOS, fosfomycin] | 40%

Same assay, conditions: CT 271

Structure (SMILES) | susceptibility, %
C[C@@H]1O[C@@H]1P(=O)(O)O [FOS, fosfomycin] | 38%

Same assay, conditions: CT 300

Structure (SMILES) | susceptibility, %
C[C@@H]1O[C@@H]1P(=O)(O)O [FOS, fosfomycin] | 0%

Same assay, conditions: CT 301

Structure (SMILES) | susceptibility, %
C[C@@H]1O[C@@H]1P(=O)(O)O [FOS, fosfomycin] | 24%

Same assay, conditions: CT 310

Structure (SMILES) | susceptibility, %
C[C@@H]1O[C@@H]1P(=O)(O)O [FOS, fosfomycin] | 33%

Same assay, conditions: CT 311

Structure (SMILES) | susceptibility, %
C[C@@H]1O[C@@H]1P(=O)(O)O [FOS, fosfomycin] | 35%

Same assay, conditions: CT 330

Structure (SMILES) | susceptibility, %
C[C@@H]1O[C@@H]1P(=O)(O)O [FOS, fosfomycin] | 40%

Same assay, conditions: CT 331

Structure (SMILES) | susceptibility, %
C[C@@H]1O[C@@H]1P(=O)(O)O [FOS, fosfomycin] | 32%

Same assay, conditions: CT 350

Structure (SMILES) | susceptibility, %
C[C@@H]1O[C@@H]1P(=O)(O)O [FOS, fosfomycin] | 44%

Same assay, conditions: CT 351

Structure (SMILES) | susceptibility, %
C[C@@H]1O[C@@H]1P(=O)(O)O [FOS, fosfomycin] | 35%

Same assay, conditions: CT 370

Structure (SMILES) | susceptibility, %
C[C@@H]1O[C@@H]1P(=O)(O)O [FOS, fosfomycin] | 25%

Same assay, conditions: CT 371

Structure (SMILES) | susceptibility, %
C[C@@H]1O[C@@H]1P(=O)(O)O [FOS, fosfomycin] | 50%

Same assay, conditions: CT 411

Structure (SMILES) | susceptibility, %
C[C@@H]1O[C@@H]1P(=O)(O)O [FOS, fosfomycin] | 50%

Same assay, conditions: CT 450

Structure (SMILES) | susceptibility, %
C[C@@H]1O[C@@H]1P(=O)(O)O [FOS, fosfomycin] | 33%

Same assay, conditions: CT 451

Structure (SMILES) | susceptibility, %
C[C@@H]1O[C@@H]1P(=O)(O)O [FOS, fosfomycin] | 33%

Same assay, conditions: CT 510

Structure (SMILES) | susceptibility, %
C[C@@H]1O[C@@H]1P(=O)(O)O [FOS, fosfomycin] | 50%

Same assay, conditions: CT 511

Structure (SMILES) | susceptibility, %
C[C@@H]1O[C@@H]1P(=O)(O)O [FOS, fosfomycin] | 100%

Same assay, conditions: CT 530

Structure (SMILES) | susceptibility, %
C[C@@H]1O[C@@H]1P(=O)(O)O [FOS, fosfomycin] | 14%

Same assay, conditions: CT 531

Structure (SMILES) | susceptibility, %
C[C@@H]1O[C@@H]1P(=O)(O)O [FOS, fosfomycin] | 33%

Same assay, conditions: CT 550

Structure (SMILES) | susceptibility, %
C[C@@H]1O[C@@H]1P(=O)(O)O [FOS, fosfomycin] | 33%

Same assay, conditions: CT 551

Structure (SMILES) | susceptibility, %
C[C@@H]1O[C@@H]1P(=O)(O)O [FOS, fosfomycin] | 36%

Same assay, conditions: CT 570

Structure (SMILES) | susceptibility, %
C[C@@H]1O[C@@H]1P(=O)(O)O [FOS, fosfomycin] | 50%

Same assay, conditions: CT 571

Structure (SMILES) | susceptibility, %
C[C@@H]1O[C@@H]1P(=O)(O)O [FOS, fosfomycin] | 25%

Same assay, conditions: CT 611

Structure (SMILES) | susceptibility, %
C[C@@H]1O[C@@H]1P(=O)(O)O [FOS, fosfomycin] | 33%

Same assay, conditions: CT 630

Structure (SMILES) | susceptibility, %
C[C@@H]1O[C@@H]1P(=O)(O)O [FOS, fosfomycin] | 0%

Same assay, conditions: CT 650

Structure (SMILES) | susceptibility, %
C[C@@H]1O[C@@H]1P(=O)(O)O [FOS, fosfomycin] | 37%

Same assay, conditions: CT 651

Structure (SMILES) | susceptibility, %
C[C@@H]1O[C@@H]1P(=O)(O)O [FOS, fosfomycin] | 24%

Same assay, conditions: CT 670

Structure (SMILES) | susceptibility, %
C[C@@H]1O[C@@H]1P(=O)(O)O [FOS, fosfomycin] | 0%

Same assay, conditions: CT 710

Structure (SMILES) | susceptibility, %
C[C@@H]1O[C@@H]1P(=O)(O)O [FOS, fosfomycin] | 33%

Same assay, conditions: CT 730

Structure (SMILES) | susceptibility, %
C[C@@H]1O[C@@H]1P(=O)(O)O [FOS, fosfomycin] | 21%

Same assay, conditions: CT 731

Structure (SMILES) | susceptibility, %
C[C@@H]1O[C@@H]1P(=O)(O)O [FOS, fosfomycin] | 43%

Same assay, conditions: CT 750

Structure (SMILES) | susceptibility, %
C[C@@H]1O[C@@H]1P(=O)(O)O [FOS, fosfomycin] | 60%

Same assay, conditions: CT 751

Structure (SMILES) | susceptibility, %
C[C@@H]1O[C@@H]1P(=O)(O)O [FOS, fosfomycin] | 17%

Same assay, conditions: CT 771

Structure (SMILES) | susceptibility, %
C[C@@H]1O[C@@H]1P(=O)(O)O [FOS, fosfomycin] | 36%

Same assay, conditions: CT Any Klebsiella spp.

Structure (SMILES) | susceptibility, %
C[C@@H]1O[C@@H]1P(=O)(O)O [FOS, fosfomycin] | 41%
